Legend:
[1] = tested on: WA09 hES cells; assay: Phase 1 untargeted metabolomics of hES cell spent media, single concentration (ornithine, cystine, o/c ratio); assay type: cell-based, human; settings: for Cystine abundance relative to the reference treatment / Ornithine abundance relative to the reference treatment: Phase 1, spent media, 72 hours, reference 0.1% DMSO; for Cystine abundance relative to the reference treatment: Cmax exposure (IC30 for hydroxyurea); for Ornithine abundance relative to the reference treatment: Cmax or IC30 exposure
Method: Undifferentiated hES Cell Line Maintenance (Phases 1 and 2).
96-well hES Cell Plating (Phases 1 and 2). […] Compound exposure began 24 hours after plating.
Sample Preparation (Phases 1 and 2).
Phase 1 Mass Spectrometry. LC-HRMS data was acquired for nine biological replications on three separate LC-HRMS systems with three replications evaluated on each system. Each system consisted of an Agilent 1290 Infinity LC system interfaced either with an Agilent G6520A QTOF high resolution mass spectrometer (QTOF HRMS), an Agilent G6530A QTOF HRMS, or an Agilent G6224A TOF HRMS system (Agilent Technologies, Santa Clara, Calif.). To facilitate separation of biological small molecules with a wide range of structures and to allow increased retention of hydrophilic species, Hydrophilic Interaction Liquid Chromatography (HILIC) was utilized. A Luna HILIC column (Phenomenex, Torrance, Calif.) with dimensions 3×100 mm and 3 μm particle size was used and maintained at 30° C. […] Electrospray ionization was employed using a dual ESI source. The scan range of the instrument was 70-1600 Da. Data acquisition was performed with MassHunter Acquisition software (version B 04.00, Agilent Technologies) using high-resolution exact mass conditions and each set of samples was run first under ESI positive polarity then under ESI negative polarity conditions.
Peak Detection (Phases 1 and 2). […] Mass features (peaks) were detected using the centwave algorithm.
Ornithine/Cystine Ratio Calculation.
Teratogenicity Threshold Selection (Phases 1 and 2).
Phase 1 Prediction of Developmental Toxicity Potential. A test compound was classified as a developmental toxicant if the mean of the change in the abundance in the treated sample compared to the reference treatment (DMSO) across the nine experimental replications for either metabolite or the o/c ratio exceeded its respective teratogenicity threshold at the concentration tested. The predictive accuracy (correct prediction), sensitivity (true positive rate), and specificity (true negative rate) were based on scoring the predicted result (teratogen or non-teratogen) against the known human teratogenicity of the compound.

[2] = tested on: mouse embryonic stem cell; settings: training and test set; weak/moderate and strong teratogens both labeled teratogen; cited from earlier work
[3] = tested on: Rodent; settings: cited from earlier work; for Rodent prediction: training and test set
[4] = tested on: zebrafish; settings: training and test set; weak/moderate and strong teratogens both labeled teratogen; cited from earlier work
[5] = tested on: WA09 hES cells; assay: Phase 2 targeted biomarker assay, ornithine/cystine ratio, 9-point dose response; settings: for Teratogenicity Potential (μM) O/C Ratio: human, 72 h
Outline: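 WA09 hES cells (≤ passage 40), plated as single cells at 100,000/well on Matrigel in mTeSR1 with 10 μM Y27632, dosed 24 h later with nine 3-fold dilutions, 0.04–300 μM, 0.1% DMSO, for 72 h. Final-24 h spent medium, spiked with 13C6-arginine and filtered (<10 kDa), analysed by LC-HRMS; viability by CellTiter-Fluor.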

[6] = training set; therapeutic peak plasma in vivo concentration, human; cited from earlier work

SMILES: NC(=O)N1c2ccccc2C=Cc2ccccc21 [Carbamazepine]
- Cystine abundance relative to the reference treatment [1]: significant increase in abundance
- mEST prediction [2]: TER^i
- Rodent prediction [3]: TER
- ZET prediction [4]: TER^t
- O/C Ratio Prediction [5]: TER
- Targeted Biomarker Assay prediction [5]: TER
- Teratogenicity Potential (μM) O/C Ratio [5]: 0.9 µM

SMILES: CC1=C(/C=C/C(C)=C/C=C/C(C)=C/C(=O)O)C(C)(C)CCC1 [All-trans Retinoic Acid]
- Cystine abundance relative to the reference treatment [1]: significant increase in abundance
- Ornithine abundance relative to the reference treatment [1]: increased
- mEST prediction [2]: TER^b,p
- Cmax [6]: 1200 nM
- Rodent prediction [3]: TER
- ZET prediction [4]: TER^c,e,r
- Change in the o/c ratio, also relative to cytotoxicity [5]: change in the o/c ratio indicative of developmental toxicity in the absence of cytotoxicity
- O/C Ratio Prediction [5]: TER
- Targeted Biomarker Assay prediction [5]: TER
- Teratogenicity Potential (μM) O/C Ratio [5]: 0.00004 µM

SMILES: CC1=C(/C=C/C(C)=C/C=C/C(C)=C\C(=O)O)C(C)(C)CCC1 [13-cis Retinoic Acid]
- Cystine abundance relative to the reference treatment [1]: significant increase in abundance
- Ornithine abundance relative to the reference treatment [1]: increased
- mEST prediction [2]: TER^p
- Cmax [6]: 2900 nM
- Rodent prediction [3]: TER
- ZET prediction [4]: TER^r
- O/C Ratio Prediction [5]: TER
- Targeted Biomarker Assay prediction [5]: TER
- Teratogenicity Potential (μM) O/C Ratio [5]: 0.0007 µM

SMILES: O=C1NC(=O)C(c2ccccc2)(c2ccccc2)N1 [Diphenylhydantoin]
- Classification by o/c ratio in Phase 1 ([1]; teratogenicity threshold of a 12% decrease in the o/c ratio, single concentration): misclassifying
- mEST prediction [2]: TER^b,i
- Rodent prediction [3]: TER
- ZET prediction [4]: NON^a
- Classification by o/c ratio in the targeted biomarker assay [5]: misclassified
- O/C Ratio Prediction [5]: NON
- Targeted Biomarker Assay prediction [5]: NON
- Teratogenicity Potential (μM) O/C Ratio [5]: 263.3 µM

SMILES: O=C1CCC(N2C(=O)c3ccccc3C2=O)C(=O)N1 (stereo not shown) [Thalidomide]
- Cystine abundance relative to the reference treatment [1]: significant increase in abundance
- Cmax [6]: 12400 nM
- Rodent developmental toxicity testing, result in words ([3]; relation to maternal toxicity where stated): did not indicate the compound's teratogenic potential in humans
- Rodent prediction [3]: NON^a
- ZET prediction [4]: TER^d
- Change in the o/c ratio, also relative to cytotoxicity [5]: change in the o/c ratio indicative of developmental toxicity in the absence of cytotoxicity
- O/C Ratio Prediction [5]: TER
- Targeted Biomarker Assay prediction [5]: TER
- Teratogenicity Potential (μM) O/C Ratio [5]: 0.2 µM

From patent publication US10209240B2, “Predicting human developmental toxicity of pharmaceuticals using human stem-like cells and metabolomic ratios” (STEMINA BIOMARKER DISCOVERY, INC., priority 2012, dated 2019)
